Reference: patent publication US20240299385A1 (ReWind Therapeutics NV, priority 2021, published 2024)

Target: T1, human GPR17 receptor (Homo sapiens, UniProt Q13304)
T1 construct: host or cells: HEK-293
Assay: Calcium mobilization functional assay (Fluo-8, FLIPR TETRA) in HEK-293 hGPR17 (Gα-q assay)
Assay type: cell-based
Conditions: antagonism of MDL29,951 (~EC80) induced Ca2+ signal; cell line (HEK-293 hGPR17 or HEK-293 Suchi5 hGPR17) not given
Method in brief: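 Fluo-8-loaded HEK-293 hGPR17 cells (60 min dye loading, room temperature) were preincubated with compound for twenty minutes, then challenged with agonist MDL29,951 at ~EC80, 500 nM. Intracellular calcium release via Gα-q was recorded as FLIPR fluorescence for a further 2 minutes; compounds tested in duplicate.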

T1 sequence (Q13304 whole entry): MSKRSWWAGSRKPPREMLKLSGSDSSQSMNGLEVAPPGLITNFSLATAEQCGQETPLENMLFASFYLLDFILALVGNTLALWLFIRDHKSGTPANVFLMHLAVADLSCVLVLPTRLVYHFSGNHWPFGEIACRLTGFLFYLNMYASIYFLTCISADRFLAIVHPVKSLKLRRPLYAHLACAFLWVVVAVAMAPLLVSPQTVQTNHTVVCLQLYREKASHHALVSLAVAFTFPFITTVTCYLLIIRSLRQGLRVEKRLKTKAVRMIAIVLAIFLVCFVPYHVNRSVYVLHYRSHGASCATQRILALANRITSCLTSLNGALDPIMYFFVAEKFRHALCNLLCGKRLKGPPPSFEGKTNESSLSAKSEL

Row | Compound | IC50
1 | Cc1cccc(-c2cc(S(=O)(=O)Nc3cc(F)c(C(F)(F)F)cc3F)c[nH]2)c1F [Cpd 319, N-[2,5-difluoro-4-(trifluoromethyl)phenyl]-5-(2-fluoro-3-methyl-phenyl)-1H-pyrrole-3-sulfonamide] | 500 to 5000 nM
2 | O=S(=O)(Nc1cc(F)c(C(F)(F)F)cc1F)c1c[nH]c(-c2cc(Cl)ccc2F)c1 [Cpd 320, 5-(5-chloro-2-fluoro-phenyl)-N-[2,5-difluoro-4-(trifluoromethyl)phenyl]-1H-pyrrole-3-sulfonamide] | 500 to 5000 nM
3 | Cc1cccc(F)c1-c1cc(S(=O)(=O)Nc2cc(F)c(C(F)(F)F)cc2F)c[nH]1 [Cpd 321, N-[2,5-difluoro-4-(trifluoromethyl)phenyl]-5-(2-fluoro-6-methyl-phenyl)-1H-pyrrole-3-sulfonamide] | 500 to 5000 nM
4 | N#Cc1ccc(NS(=O)(=O)c2c[nH]c(-c3ccccn3)c2)c(F)c1F [Cpd 322, N-(4-cyano-2,3-difluoro-phenyl)-5-(2-pyridyl)-1H-pyrrole-3-sulfonamide] | 500 to 5000 nM
5 | COc1cccc(-c2cc(S(=O)(=O)Nc3cc(F)c(C(F)(F)F)cc3F)c[nH]2)c1 [Cpd 323, N-[2,5-difluoro-4-(trifluoromethyl)phenyl]-5-(3-methoxyphenyl)-1H-pyrrole-3-sulfonamide] | 500 to 5000 nM
6 | COc1ccc(-c2cc(S(=O)(=O)Nc3cc(F)c(C(F)(F)F)cc3F)c[nH]2)c(F)c1 [Cpd 324, N-[2,5-difluoro-4-(trifluoromethyl)phenyl]-5-(2-fluoro-4-methoxy-phenyl)-1H-pyrrole-3-sulfonamide] | 5000 to 50000 nM
7 | COc1cccc(-c2cc(S(=O)(=O)Nc3cc(F)c(C(F)(F)F)cc3F)c[nH]2)c1F [Cpd 325, N-[2,5-difluoro-4-(trifluoromethyl)phenyl]-5-(2-fluoro-3-methoxy-phenyl)-1H-pyrrole-3-sulfonamide] | 500 to 5000 nM
8 | Cc1cc(NS(=O)(=O)c2c[nH]c(-c3ccccc3)c2)c(F)cc1C#N [Cpd 326, N-(4-cyano-2-fluoro-5-methyl-phenyl)-5-phenyl-1H-pyrrole-3-sulfonamide] | < 500 nM
9 | O=S(=O)(Nc1cc(F)c(C(F)(F)F)cc1F)c1c[nH]c(-c2cccc(Cl)c2F)c1 [Cpd 327, 5-(3-chloro-2-fluoro-phenyl)-N-[2,5-difluoro-4-(trifluoromethyl)phenyl]-1H-pyrrole-3-sulfonamide] | 500 to 5000 nM
10 | O=S(=O)(Nc1c(F)cc(C(F)(F)F)cc1F)c1c[nH]c(-c2ccccc2)c1 [Cpd 328, N-[2,6-difluoro-4-(trifluoromethyl)phenyl]-5-phenyl-1H-pyrrole-3-sulfonamide] | 500 to 5000 nM
11 | Cc1ccc(-c2cc(S(=O)(=O)Nc3ccc(C#N)cc3F)c[nH]2)c(C)c1 [Cpd 329, N-(4-cyano-2-fluoro-phenyl)-5-(2,4-dimethylphenyl)-1H-pyrrole-3-sulfonamide] | 500 to 5000 nM
12 | N#Cc1ccc(-c2cc(S(=O)(=O)Nc3cc(F)c(C(F)(F)F)cc3F)c[nH]2)cc1 [Cpd 330, 5-(4-cyanophenyl)-N-[2,5-difluoro-4-(trifluoromethyl)phenyl]-1H-pyrrole-3-sulfonamide] | 5000 to 50000 nM
13 | Cc1ccc(C)c(-c2cc(S(=O)(=O)Nc3ccc(C#N)cc3F)c[nH]2)c1 [Cpd 331, N-(4-cyano-2-fluoro-phenyl)-5-(2,5-dimethylphenyl)-1H-pyrrole-3-sulfonamide] | < 500 nM
14 | O=S(=O)(Nc1ccc(C(F)(F)F)c(F)c1F)c1c[nH]c(-c2ccccn2)c1 [Cpd 332, N-[2,3-difluoro-4-(trifluoromethyl)phenyl]-5-(2-pyridyl)-1H-pyrrole-3-sulfonamide] | 500 to 5000 nM
15 | N#Cc1cc(F)c(NS(=O)(=O)c2c[nH]c(-c3ccccc3)c2)cc1Cl [Cpd 333, N-(5-chloro-4-cyano-2-fluoro-phenyl)-5-phenyl-1H-pyrrole-3-sulfonamide] | < 500 nM
16 | O=S(=O)(Nc1ccc(C(F)(F)F)c(F)c1F)c1c[nH]c(-c2ccccc2)c1 [Cpd 334, N-[2,3-difluoro-4-(trifluoromethyl)phenyl]-5-phenyl-1H-pyrrole-3-sulfonamide] | 500 to 5000 nM
17 | O=S(=O)(Nc1ccc(C(F)(F)F)c(Cl)c1F)c1c[nH]c(-c2ccccn2)c1 [Cpd 335, N-[3-chloro-2-fluoro-4-(trifluoromethyl)phenyl]-5-(2-pyridyl)-1H-pyrrole-3-sulfonamide] | 5000 to 50000 nM
18 | Cc1cc(NS(=O)(=O)c2c[nH]c(-c3ccccn3)c2)c(F)cc1C(F)(F)F [Cpd 336, N-[2-fluoro-5-methyl-4-(trifluoromethyl)phenyl]-5-(2-pyridyl)-1H-pyrrole-3-sulfonamide] | 500 to 5000 nM
19 | Cc1cccc(-c2cc(S(=O)(=O)Nc3cc(F)c(C(F)(F)F)cc3F)c[nH]2)c1 [Cpd 337, N-[2,5-difluoro-4-(trifluoromethyl)phenyl]-5-(m-tolyl)-1H-pyrrole-3-sulfonamide] | 500 to 5000 nM
20 | Cc1cc(NS(=O)(=O)c2c[nH]c(-c3ccccc3)c2)c(F)cc1C(F)(F)F [Cpd 338, N-[2-fluoro-5-methyl-4-(trifluoromethyl)phenyl]-5-phenyl-1H-pyrrole-3-sulfonamide] | 500 to 5000 nM

Row | Compound | IC50
21 | O=S(=O)(Nc1cc(F)c(C(F)(F)F)cc1F)c1c[nH]c(-c2nccs2)c1 [Cpd 339, N-[2,5-difluoro-4-(trifluoromethyl)phenyl]-5-thiazol-2-yl-1H-pyrrole-3-sulfonamide] | < 500 nM
22 | N#Cc1ccc(NS(=O)(=O)c2c[nH]cc2Cc2cccc(OC3CC3)c2)c(F)c1 [Cpd 340, N-(4-cyano-2-fluoro-phenyl)-4-[[3-(cyclopropoxy)phenyl]methyl]-1H-pyrrole-3-sulfonamide] | 500 to 5000 nM
23 | CC(C)Oc1cccc(Cc2c[nH]cc2S(=O)(=O)Nc2ccc(C#N)cc2F)c1 [Cpd 341, N-(4-cyano-2-fluoro-phenyl)-4-[(3-isopropoxyphenyl)methyl]-1H-pyrrole-3-sulfonamide] | 500 to 5000 nM
24 | N#Cc1ccc(NS(=O)(=O)c2c[nH]cc2Cc2cccc(OCC3CC3)c2)c(F)c1 [Cpd 342, N-(4-cyano-2-fluoro-phenyl)-4-[[3-(cyclopropylmethoxy)phenyl]methyl]-1H-pyrrole-3-sulfonamide] | 500 to 5000 nM
25 | N#Cc1ccc(NS(=O)(=O)c2c[nH]cc2Cc2cccs2)c(F)c1 [Cpd 343, N-(4-cyano-2-fluoro-phenyl)-4-(2-thienylmethyl)-1H-pyrrole-3-sulfonamide] | < 500 nM
26 | O=S(=O)(Nc1cc(F)c(C(F)(F)F)cc1F)c1c[nH]c(-c2cccc(C(F)(F)F)n2)c1 [Cpd 344, N-[2,5-difluoro-4-(trifluoromethyl)phenyl]-5-[6-(trifluoromethyl)-2-pyridyl]-1H-pyrrole-3-sulfonamide] | 500 to 5000 nM
27 | O=S(=O)(Nc1cc(F)c(C(F)(F)F)cc1F)c1c[nH]c(-c2ccc(Br)cn2)c1 [Cpd 345, 5-(5-bromo-2-pyridyl)-N-[2,5-difluoro-4-(trifluoromethyl)phenyl]-1H-pyrrole-3-sulfonamide] | 500 to 5000 nM
28 | O=S(=O)(Nc1cc(F)c(C(F)(F)F)cc1F)c1c[nH]c(-c2ncccc2Br)c1 [Cpd 346, 5-(3-bromo-2-pyridyl)-N-[2,5-difluoro-4-(trifluoromethyl)phenyl]-1H-pyrrole-3-sulfonamide] | < 500 nM
29 | N#Cc1ccc(NS(=O)(=O)c2c[nH]c(-c3ccc(F)cn3)c2)c(F)c1 [Cpd 347, N-(4-cyano-2-fluoro-phenyl)-5-(5-fluoro-2-pyridyl)-1H-pyrrole-3-sulfonamide] | 500 to 5000 nM
30 | Cc1cccnc1-c1cc(S(=O)(=O)Nc2ccc(C#N)cc2F)c[nH]1 [Cpd 348, N-(4-cyano-2-fluoro-phenyl)-5-(3-methyl-2-pyridyl)-1H-pyrrole-3-sulfonamide] | < 500 nM
31 | N#Cc1ccc(NS(=O)(=O)c2c[nH]c(-c3ncccc3Cl)c2)c(F)c1 [Cpd 349, 5-(3-chloro-2-pyridyl)-N-(4-cyano-2-fluoro-phenyl)-1H-pyrrole-3-sulfonamide] | < 500 nM
32 | N#Cc1ccc(NS(=O)(=O)c2c[nH]c(-c3ncccc3Br)c2)c(F)c1 [Cpd 350, 5-(3-bromo-2-pyridyl)-N-(4-cyano-2-fluoro-phenyl)-1H-pyrrole-3-sulfonamide] | < 500 nM
33 | O=S(=O)(Nc1cc(F)c(C(F)(F)F)cc1F)c1c[nH]c(-c2ccccc2Cl)c1 [Cpd 351, 5-(2-chlorophenyl)-N-[2,5-difluoro-4-(trifluoromethyl)phenyl]-1H-pyrrole-3-sulfonamide] | 500 to 5000 nM
34 | COc1cc(F)ccc1-c1cc(S(=O)(=O)Nc2ccc(C#N)cc2F)c[nH]1 [Cpd 352, N-(4-cyano-2-fluoro-phenyl)-5-(4-fluoro-2-methoxy-phenyl)-1H-pyrrole-3-sulfonamide] | 500 to 5000 nM
35 | N#Cc1cc(F)c(NS(=O)(=O)c2c[nH]c(-c3ccccn3)c2)cc1F [Cpd 353, N-(4-cyano-2,5-difluoro-phenyl)-5-(2-pyridyl)-1H-pyrrole-3-sulfonamide] | < 500 nM
36 | N#Cc1cc(F)c(NS(=O)(=O)c2c[nH]c(-c3ccccn3)c2)c(F)c1 [Cpd 354, N-(4-cyano-2,6-difluoro-phenyl)-5-(2-pyridyl)-1H-pyrrole-3-sulfonamide] | 500 to 5000 nM
37 | N#Cc1ccccc1-c1cc(S(=O)(=O)Nc2cc(F)c(C(F)(F)F)cc2F)c[nH]1 [Cpd 355, 5-(2-cyanophenyl)-N-[2,5-difluoro-4-(trifluoromethyl)phenyl]-1H-pyrrole-3-sulfonamide] | 500 to 5000 nM
38 | O=S(=O)(Nc1cc(F)c(C(F)(F)F)cc1F)c1c[nH]c(-c2cccc(Cl)c2)c1 [Cpd 356, 5-(3-chlorophenyl)-N-[2,5-difluoro-4-(trifluoromethyl)phenyl]-1H-pyrrole-3-sulfonamide] | 500 to 5000 nM
39 | N#Cc1cc(F)c(NS(=O)(=O)c2c[nH]c(-c3ccccn3)c2)cc1Cl [Cpd 357, N-(5-chloro-4-cyano-2-fluoro-phenyl)-5-(2-pyridyl)-1H-pyrrole-3-sulfonamide] | < 500 nM
40 | N#Cc1ccc(NS(=O)(=O)c2c[nH]c(C3=CCCCC3)c2)c(F)c1 [Cpd 358, N-(4-cyano-2-fluoro-phenyl)-5-(cyclohexen-1-yl)-1H-pyrrole-3-sulfonamide] | < 500 nM
